Source: US20130090317A1 (priority 2011, published 2013)
Where two headings read alike, the source gives them in different places.

Experiments:
[1] = tested on: rats suffering from TBI; conditions: moderate to severe TBI, 16 mg/kg, 72 hours post-injury, p<0.05 (FIG. 1); cited from earlier work
[2] = tested on: rats that have suffered a concussion (mTBI); experiment: Morris Water Maze latency to platform in mTBI (concussion) model; assay type: in vivo, rat; conditions: versus vehicle-injured rats (FIG. 8)
[3] = tested on: moderate to severe TBI patients; conditions: cited from earlier work
[4] = tested on: severe TBI patients; conditions: six months; cited from earlier work
[5] = tested on: glutathione reductase; conditions: 72 hours post-injury, p<0.01 (FIG. 2); cited from earlier work
[6] = biological target: T1, classical progesterone receptor (PR) (Homo sapiens, UniProt P06401); conditions: cited from earlier work
T1 sequence (P06401 1-933): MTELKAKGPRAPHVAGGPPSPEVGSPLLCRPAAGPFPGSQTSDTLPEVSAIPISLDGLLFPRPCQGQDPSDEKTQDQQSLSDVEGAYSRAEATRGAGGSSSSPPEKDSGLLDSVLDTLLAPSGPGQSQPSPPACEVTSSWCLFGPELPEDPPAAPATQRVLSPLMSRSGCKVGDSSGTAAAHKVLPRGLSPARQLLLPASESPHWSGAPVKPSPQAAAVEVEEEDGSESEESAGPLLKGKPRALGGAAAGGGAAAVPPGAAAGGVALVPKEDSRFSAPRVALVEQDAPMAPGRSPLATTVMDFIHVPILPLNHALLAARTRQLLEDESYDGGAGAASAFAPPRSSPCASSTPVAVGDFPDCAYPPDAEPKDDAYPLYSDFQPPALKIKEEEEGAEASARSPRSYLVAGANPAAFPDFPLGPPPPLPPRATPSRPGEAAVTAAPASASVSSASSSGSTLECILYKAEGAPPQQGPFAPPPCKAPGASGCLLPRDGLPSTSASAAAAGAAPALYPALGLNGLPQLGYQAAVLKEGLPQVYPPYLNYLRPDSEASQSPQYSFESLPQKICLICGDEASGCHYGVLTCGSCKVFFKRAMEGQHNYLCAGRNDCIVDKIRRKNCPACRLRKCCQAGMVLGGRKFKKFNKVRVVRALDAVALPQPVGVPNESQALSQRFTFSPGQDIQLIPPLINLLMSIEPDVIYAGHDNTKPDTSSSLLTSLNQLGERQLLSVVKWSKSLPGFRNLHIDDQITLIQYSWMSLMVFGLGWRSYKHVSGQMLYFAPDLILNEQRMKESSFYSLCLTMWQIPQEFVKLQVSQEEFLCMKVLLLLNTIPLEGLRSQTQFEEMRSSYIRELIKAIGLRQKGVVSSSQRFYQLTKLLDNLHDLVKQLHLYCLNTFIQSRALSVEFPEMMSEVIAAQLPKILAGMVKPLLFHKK

Compound | brain water content (measure of edema) [1] | latency to platform, Morris Water Maze ([2]; Prog administered post-acutely (15 minutes post)) | latency to platform, Morris Water Maze ([2]; Prog administered prophylactically (15 minutes prior)) | 30 days post-injury outcomes (Glasgow Outcome Scale-Extended, Disability Rating Scale) ([3]; moderate TBI patients) | 30 days post-injury outcomes (Glasgow Outcome Scale-Extended, Disability Rating Scale) ([3]; patients with severe brain injuries) | neurological outcomes long-term [4] | anti-oxidant activity of glutathione reductase [5] | activation of the classical progesterone receptor (PR) [6]
CC(=O)[C@H]1CC[C@H]2[C@@H]3CC[C@H]4C[C@H](O)CC[C@]4(C)[C@H]3CC[C@]12C [ALLO, allopregnanolone] | normalizes brain water content | – | – | – | – | – | – | –
CC(=O)[C@H]1CC[C@H]2[C@@H]3CCC4=CC(=O)CC[C@]4(C)[C@H]3CC[C@]12C [Prog, progesterone] | normalizes brain water content | decreases latency to platform | decreases latency to platform | better outcomes | little measurable difference | better neurological outcomes long-term | – | –
CC(=O)[C@@H]1CC[C@@H]2[C@H]3CCC4=CC(=O)CC[C@@]4(C)[C@@H]3CC[C@]21C [ent-Prog, ent-progesterone] | normalizes brain water content | – | – | – | – | – | significantly increases the anti-oxidant activity of glutathione reductase compared to all other groups | does not activate the classical progesterone receptor (PR)
